We go through 13 compounds from US12552938B2, “Deuterated fluorophores” (HOWARD HUGHES MEDICAL INSTITUTE, priority 2018, dated 2026).

The structures appear in SMILES notation. Counter-ions that a name gives are not always drawn.

Data set [1] is described as follows: spectral properties of free dyes (absorbance, fluorescence emission, ε, Φ, intrinsic brightness). Type of data set: physicochemical. Particulars: 10 mM HEPES pH 7.3; for extinction coefficient (ε) compared to nondeuterated parent / fluorescence quantum yield (Φ) compared to nondeuterated parent / intrinsic brightness (ε×Φ): free dye; for intrinsic brightness (ε×Φ): in vitro.

Data set [2] can be described thus: photobleaching of free dyes in vitro. Type of data set: physicochemical. The conditions noted are these: for chromostability during bleaching: compared to nondeuterated compounds 15 and 17; for photobleaching / in vitro photostability compared to nondeuterated parent: free dye, 10 mM HEPES pH 7.3.
The test system of data set [3] is histone H2B-HaloTag fusion. Kind of data set: labeling of cells expressing histone H2B-HaloTag fusion and imaging. Type of data set: cell-based, mammalian cell. Particulars: 10 pM, 30 min, washed 30 minutes.
In another data set the test system is Sox2-HaloTag fusions. The data set can be described thus: live-cell single-particle tracking of HaloTag ligands. Type of data set: cell-based. Particulars: HaloTag conjugates.
[4] abbreviates: deuterated vs nondeuterated TMR.

As for `[2H]C1([2H])N(c2ccc3c(-c4ccccc4C(=O)[O-])c4ccc(=[N+]5C([2H])([2H])C([2H])([2H])C([2H])([2H])C([2H])([2H])C5([2H])[2H])cc-4oc3c2)C([2H])([2H])C([2H])([2H])C([2H])([2H])C1([2H])[2H]` [Compound 20, 2-(3,6-Bis(piperidin-1-yl-d10)xanthylium-9-yl)benzoate], in data set [1], the “absorption and emission maxima / spectral shape compared to nondeuterated parent” value is reported as “no change in spectral shape”; the “extinction coefficient (ε) compared to nondeuterated parent” value is reported as “increases”; the “fluorescence quantum yield (Φ) compared to nondeuterated parent” value is on record as “increases”. Also, in data set [2], the chromostability during bleaching entry was “higher”.
Consider `[2H]C1([2H])N(c2ccc3c(c2)[Si](C)(C)C2=CC(=[N+]4C([2H])([2H])C([2H])([2H])C4([2H])[2H])C=CC2=C3c2ccccc2C(=O)[O-])C([2H])([2H])C1([2H])[2H]` [Compound 31, 2-(3,7-Bis(azetidin-1-yl-d6)-5,5-dimethyldibenzo[b,e]silin-10-ylium-10(5B)-yl)benzoate], for which, in data set [1], the “intrinsic brightness (ε×Φ)” value was “increase”, the “extinction coefficient (ε) compared to nondeuterated parent” value is recorded as “modestly increased” and the “fluorescence quantum yield (Φ) compared to nondeuterated parent” value is on record as “did not elicit a large increase”.
On to `[2H]C1([2H])N(c2ccc3c(c2)[Si](C)(C)C2=CC(=[N+]4C([2H])([2H])C([2H])([2H])C([2H])([2H])C4([2H])[2H])C=CC2=C3c2ccccc2C(=O)[O-])C([2H])([2H])C([2H])([2H])C1([2H])[2H]` [Compound 33, 2-(5,5-Dimethyl-3,7-bis(pyrrolidin-1-yl-d8)dibenzo[b,e]silin-10-ylium-10(5H)-yl)benzoate], for which, in data set [1], the “extinction coefficient (ε) compared to nondeuterated parent” value was “substantial increase” and the “fluorescence quantum yield (Φ) compared to nondeuterated parent” value is listed as “substantial increase”.
As for `[2H]C1([2H])N(c2ccc3c(C)cc(=O)oc3c2)C([2H])([2H])C([2H])([2H])C1([2H])[2H]` [Compound 42, 4-Methyl-7-(pyrrolidin-1-yl-d8)-2H-chromen-2-one], in data set [1], the “extinction coefficient (ε) compared to nondeuterated parent” value is reported as “equivalent” and the “fluorescence quantum yield (Φ) compared to nondeuterated parent” value was “significantly higher”.
As for `[2H]C1([2H])N(c2ccc3c(c2)C(C)(C)C2=CC(=[N+]4C([2H])([2H])C([2H])([2H])C4([2H])[2H])C=CC2=C3c2ccccc2C(=O)[O-])C([2H])([2H])C1([2H])[2H]` [Compound 27, 2-(3,6-Bis(azetidin-1-yl-d6)-10,10-dimethylanthracen-9-ylium-9(10H)-yl)benzoate], in data set [1], the “extinction coefficient (ε) compared to nondeuterated parent” value was “substantial increases” and the “fluorescence quantum yield (Φ) compared to nondeuterated parent” value is “substantial increases”.
As for `[2H]C1([2H])N(c2ccc3c(-c4cc(C(=O)NCCOCCOCCCCCCCl)ccc4C(=O)[O-])c4ccc(=[N+]5C([2H])([2H])C([2H])([2H])C([2H])([2H])C5([2H])[2H])cc-4oc3c2)C([2H])([2H])C([2H])([2H])C1([2H])[2H]` [Compound 25, 2-(3,6-Bis(pyrrolidin-1-yl-d8)xanthylium-9-yl)-4-((2-(2-((6-chlorohexyl)oxy)ethoxy)ethyl)carbamoyl)benzoate], the “labeling of HaloTag-histone H2B fusions in living cells” value in data set [3] is on record as “excellent live-cell label”. In addition, the “photostability in cells (average track length of individual molecules)” value with Sox2-HaloTag fusions was “significantly longer tracks”. Further, the “brightness in cells (photons/s)” value with Sox2-HaloTag fusions (equivalent imaging conditions) is “higher brightness”.
As for `[2H]C1([2H])N(c2ccc3c(-c4ccccc4C(=O)[O-])c4ccc(=[N+]5C([2H])([2H])C([2H])([2H])C([2H])([2H])C5([2H])[2H])cc-4oc3c2)C([2H])([2H])C([2H])([2H])C1([2H])[2H]` [Compound 18, 2-(3,6-Bis(pyrrolidin-1-yl-d8)xanthylium-9-yl)benzoate], in data set [1], the “absorption and emission maxima / spectral shape compared to nondeuterated parent” value is reported as “no change in spectral shape”; the “intrinsic brightness (ε×Φ)” value is on record as “equivalent brightness”; the “extinction coefficient (ε) compared to nondeuterated parent” value is “increases”; the “fluorescence quantum yield (Φ) compared to nondeuterated parent” value was “increases”. In data set [2], the chromostability during bleaching result is recorded as “higher” and the “photobleaching / in vitro photostability compared to nondeuterated parent” value is recorded as “improved in vitro photostability”.
Consider `[2H]C1([2H])OC([2H])([2H])C([2H])([2H])N(c2ccc3c(-c4ccccc4C(=O)[O-])c4ccc(=[N+]5C([2H])([2H])C([2H])([2H])OC([2H])([2H])C5([2H])[2H])cc-4oc3c2)C1([2H])[2H]` [Compound 22, 2-(3,6-Bis(morpholino-d8)xanthylium-9-yl)benzoate], for which, in data set [1], the “absorption and emission maxima / spectral shape compared to nondeuterated parent” value was “no change in spectral shape”; the “extinction coefficient (ε) compared to nondeuterated parent” value is recorded as “increases”; the “fluorescence quantum yield (Φ) compared to nondeuterated parent” value is reported as “increases”.
Consider `O=C1OC2(c3ccc(N4CCC4)cc3Oc3cc(N4CCC4)ccc32)c2ccccc21` [Compound 15, reference compound], for which the “blue-shift of fluorescence emission during photobleaching due to dealkylation” value in data set [2] (spectra taken periodically during photobleaching) is listed as 9 nm.
On to `[2H]C1([2H])N(c2ccc3c(C)cc(=O)oc3c2)C([2H])([2H])C1([2H])[2H]` [Compound 40, 7-(Azetidin-1-yl-d6)-4-methyl-2H-chromen-2-one], for which, in data set [1], the “extinction coefficient (ε) compared to nondeuterated parent” value is “similar” and the “fluorescence quantum yield (Φ) compared to nondeuterated parent” value is on record as “small decrease”.
Consider `[2H]C1([2H])N(c2ccc3c(c2)C(C)(C)C2=CC(=[N+]4C([2H])([2H])C([2H])([2H])C([2H])([2H])C4([2H])[2H])C=CC2=C3c2ccccc2C(=O)[O-])C([2H])([2H])C([2H])([2H])C1([2H])[2H]` [Compound 29, 2-(10,10-Dimethyl-3,6-bis(pyrrolidin-1-yl-d8)anthracen-9-ylium-9(10H)-yl)benzoate], for which, in data set [1], the “extinction coefficient (ε) compared to nondeuterated parent” value is reported as “substantial increases” and the “fluorescence quantum yield (Φ) compared to nondeuterated parent” value is reported as “substantial increases”.
`[2H]C([2H])([2H])N(c1ccc2c(-c3ccccc3C(=O)[O-])c3ccc(=[N+](C([2H])([2H])[2H])C([2H])([2H])[2H])cc-3oc2c1)C([2H])([2H])[2H]` [Compound 14, 2-(3,6-Bis(bis(methyl-d3)amino)xanthylium-9-yl)benzoate]: the “absorption and emission maxima / spectral shape compared to nondeuterated parent” value in data set [1] is “remarkably similar”. In data set [1] (setting [4]), the “increase in extinction coefficient at λmax (ε) compared to 1” value is roughly 20% and the “increase in fluorescence quantum yield (Φ) compared to 1” value is listed as roughly 20%. Further, the “photobleaching / in vitro photostability compared to nondeuterated parent” value in data set [2] is “slower rate of photobleaching”.
In the case of `[2H]C1([2H])N(c2ccc3nc4ccc(=[N+]5C([2H])([2H])C([2H])([2H])C([2H])([2H])C5([2H])[2H])cc-4oc3c2)C([2H])([2H])C([2H])([2H])C1([2H])[2H]` [Compound 44, 3,7-Bis(pyrrolidin-1-yl-d8)phenoxazin-5-ium trifluoroacetate], the “fluorescence quantum yield (Φ) compared to nondeuterated parent” value in data set [1] was “substantial increase”.
